{"source": "paper PMC10455244", "about": "“Alpha-Mangostin: A Potent Inhibitor of TRPV3 and Pro-Inflammatory Cytokine Secretion in Keratinocytes” (International Journal of Molecular Sciences, 2023)", "molecular_target": "T1, TRPV3 (Homo sapiens, UniProt Q8NET8)", "T1 sequence (Q8NET8 1-790)": "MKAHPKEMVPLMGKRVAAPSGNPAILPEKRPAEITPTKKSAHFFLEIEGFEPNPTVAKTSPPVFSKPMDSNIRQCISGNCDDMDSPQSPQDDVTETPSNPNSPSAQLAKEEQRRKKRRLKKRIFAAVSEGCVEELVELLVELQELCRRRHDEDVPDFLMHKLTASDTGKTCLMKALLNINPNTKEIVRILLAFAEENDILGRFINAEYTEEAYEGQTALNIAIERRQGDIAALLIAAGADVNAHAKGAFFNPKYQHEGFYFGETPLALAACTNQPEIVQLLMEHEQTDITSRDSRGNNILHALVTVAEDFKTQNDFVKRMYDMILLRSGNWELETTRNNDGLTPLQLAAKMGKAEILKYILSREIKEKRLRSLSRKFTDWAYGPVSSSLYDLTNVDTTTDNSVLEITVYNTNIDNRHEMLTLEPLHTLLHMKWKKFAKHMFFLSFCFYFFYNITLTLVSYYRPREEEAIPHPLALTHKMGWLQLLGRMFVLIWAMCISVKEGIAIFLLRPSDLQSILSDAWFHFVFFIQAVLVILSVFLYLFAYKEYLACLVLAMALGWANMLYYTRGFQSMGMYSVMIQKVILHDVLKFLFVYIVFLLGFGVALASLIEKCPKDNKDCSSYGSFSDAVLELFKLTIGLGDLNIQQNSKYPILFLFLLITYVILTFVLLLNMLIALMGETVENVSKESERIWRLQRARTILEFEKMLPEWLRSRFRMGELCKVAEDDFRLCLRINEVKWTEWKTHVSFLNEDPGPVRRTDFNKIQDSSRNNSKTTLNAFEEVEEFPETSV", "assay": "Whole-cell patch-clamp, carvacrol-evoked TRPV3 current in TRPV3-overexpressing HEK 293T cells", "assay_type": "cell-based", "design": "host or cells: NHEK", "settings": "1000 µM carvacrol, −100 mV, at higher concentrations"}
{"smiles": "COc1c(O)cc2oc3cc(O)c(CC=C(C)C)c(O)c3c(=O)c2c1CC=C(C)C", "note": "[Alpha-mangostin]", "values": [{"measurement": "Effect on TRPV3 current induced by carvacrol", "value": "suppressed"}]}
